Experimental data from article PMC6749346, “Synthesis of Isorhamnetin-3-O-Rhamnoside by a Three-Enzyme (Rhamnosyltransferase, Glycine Max Sucrose Synthase, UDP-Rhamnose Synthase) Cascade Using a UDP-Rhamnose Regeneration System” (Molecules, 2019).

T1: rhamnosyltransferase 78D1 (Arabidopsis thaliana, UniProt Q9S9P6)
T1 construct: gene UGT78D1; codon-optimised synthetic gene in pET-28a (BamHI/EcoRI), E. coli BL21(DE3), Ni-NTA purified; theoretical monomer mass 50019 Da
T1 sequence (Q9S9P6 1-453): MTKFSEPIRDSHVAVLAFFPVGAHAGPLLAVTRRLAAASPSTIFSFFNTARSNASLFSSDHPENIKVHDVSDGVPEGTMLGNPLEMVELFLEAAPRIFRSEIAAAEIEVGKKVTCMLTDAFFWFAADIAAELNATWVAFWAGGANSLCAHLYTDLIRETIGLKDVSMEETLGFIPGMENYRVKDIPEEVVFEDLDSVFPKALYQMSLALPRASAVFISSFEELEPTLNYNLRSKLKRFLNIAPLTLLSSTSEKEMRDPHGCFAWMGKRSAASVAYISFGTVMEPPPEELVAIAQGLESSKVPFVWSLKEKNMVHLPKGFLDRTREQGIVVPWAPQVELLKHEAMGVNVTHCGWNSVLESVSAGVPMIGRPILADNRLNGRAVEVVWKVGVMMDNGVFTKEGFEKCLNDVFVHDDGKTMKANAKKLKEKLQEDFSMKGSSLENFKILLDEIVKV


What was measured:
[1] = target: T1, rhamnosyltransferase 78D1; assay: HPLC activity assay with […] UDP, […] min pre-incubation; type: biochemical; details: inhibitor; UDP-rhamnose donor, 0.5 mM isorhamnetin; 50 mM phosphate pH 7.5; 35 °C
[2] = substrate: COc1cc(-c2oc3cc(O)cc(O)c3c(=O)c2O)ccc1O; assay: HPLC of isorhamnetin-3-O-rhamnoside formation, initial rates; type: biochemical, Arabidopsis thaliana; details: co-substrate excess UDP-rhamnose, 50 mM phosphate pH 7.5, 35 °C

Molecule	% activity [1]	Km [2]
O=c1ccn([C@@H]2O[C@H](COP(=O)(O)OP(=O)(O)O)[C@@H](O)[C@H]2O)c(=O)[nH]1 [UDP]	The enzyme activity was inhibited when the concentration of UDP was gradually increased	–
rhamnosyltransferase 78D1 (Arabidopsis thaliana) (protein, codon-optimised synthetic gene in pET-28a (BamHI/EcoRI), E. coli BL21(DE3), Ni-NTA purified; theoretical monomer mass 50019 Da) MTKFSEPIRDSHVAVLAFFPVGAHAGPLLAVTRRLAAASPSTIFSFFNTARSNASLFSSDHPENIKVHDVSDGVPEGTMLGNPLEMVELFLEAAPRIFRSEIAAAEIEVGKKVTCMLTDAFFWFAADIAAELNATWVAFWAGGANSLCAHLYTDLIRETIGLKDVSMEETLGFIPGMENYRVKDIPEEVVFEDLDSVFPKALYQMSLALPRASAVFISSFEELEPTLNYNLRSKLKRFLNIAPLTLLSSTSEKEMRDPHGCFAWMGKRSAASVAYISFGTVMEPPPEELVAIAQGLESSKVPFVWSLKEKNMVHLPKGFLDRTREQGIVVPWAPQVELLKHEAMGVNVTHCGWNSVLESVSAGVPMIGRPILADNRLNGRAVEVVWKVGVMMDNGVFTKEGFEKCLNDVFVHDDGKTMKANAKKLKEKLQEDFSMKGSSLENFKILLDEIVKV	–	181 µM
